The record followed here is ChEMBL document CHEMBL1137933, “Pseudodeflectusin, a novel isochroman derivative from Aspergillus pseudodeflectus a parasite of the sea weed, Sargassum fusiform, as a selective human cancer cytotoxin” (Bioorg Med Chem Lett, 2004).

One assay has as its target Gamma-secretase. As to the kind of experiment: Inhibition of human gamma-secretase activity. It counts as protein-complex assay.
For assay [1], the system named is Mus musculus. As to the kind of experiment: Compound was tested for reduction in plasma level of Tg2576 mice 3h after oral administration at 200 umol/kg. It counts as functional.
The subject of assay [2] is Mus musculus. The experiment in a line: Compound was tested for reduction in Abeta-protein levels in brain of Tg2576 mice 3h after oral administration at 200 umol/kg. It counts as functional.
For assay [3], the system named is Mus musculus. As to the kind of experiment: Compound was tested for reduction in brain Abeta-protein level of Tg2576 mice 3h after oral administration at 200 umol/kg. It counts as functional.
Assay [4] deals with Mus musculus. As to the kind of experiment: Compound was tested for reduction in Abeta-protein levels in the CNS of Tg2576 beta-APP-swedish transgenic mice after oral administration. It counts as functional, Central nervous system.
For assay [5], the system named is Mus musculus. The experiment in a line: Compound was tested for reduction in Abeta-protein levels in brain after 3 hr in Tg2576 beta-APP-swedish transgenic mice at a single dose of 200 umol/kg. It counts as functional.
Assay [6] deals with Mus musculus. The experiment in a line: Compound was tested for reduction in Abeta-protein levels in plasma of Tg2576 beta-APP-swedish transgenic mice at a single dose of 200 umol/kg. Type of assay: functional.

Usually IC50 stands for the concentration needed to halve the response being measured. Low values mean higher potency, high ones lower potency. As to `CC(C)[C@H](NC(=O)Cc1cc(F)cc(F)c1)C(=O)NC1C(=O)N(C)N(C(C)C)C(=O)c2ccccc21` (stereo not given in full), the IC50 at Gamma-secretase turned out to be 190 nM.
Still for that read-out and setting: to `CC(C)N1C(=O)c2ccccc2C(NC(=O)[C@H](C)NC(=O)Cc2ccco2)C(=O)N1C` (stereo not given in full) belongs 86 nM; to `CC(C)C[C@H](NC(=O)Cc1cc(F)cc(F)c1)C(=O)NC1C(=O)N(C)N(C(C)C)C(=O)c2ccccc21` (stereo not given in full), 37 nM; to `CC(C)C[C@H](NC(=O)Cc1cc(F)cc(F)c1)C(=O)Nc1cnc(-c2ccccc2)n(C)c1=O`, 720 nM.
For `CC(C)N1C(=O)c2ccccc2C(NC(=O)[C@H](C)NC(=O)Cc2ccsc2)C(=O)N1C` (stereo not given in full), the IC50 on Gamma-secretase came out at 14 nM.
Compound `CC(C)N1C(=O)c2ccccc2C(NC(=O)[C@H](C)NC(=O)Cc2ccncc2)C(=O)N1C` (stereo not given in full) returned an IC50 on Gamma-secretase greater than 2500 nM.
On the same count and under the same terms, to `COc1cc(CC(=O)N[C@@H](C)C(=O)NC2C(=O)N(C)N(C(C)C)C(=O)c3ccccc32)cc(OC)c1` (stereo not given in full) belongs greater than 2500 nM; to `CC(C)C[C@H](NC(=O)Cc1cc(F)cc(F)c1)C(=O)NC1C(=O)N(C)C(c2ccccc2)=NC1(C)C` (stereo not given in full), 1500 nM; to `CC(C)N1C(=O)c2ccccc2C(NC(=O)[C@H](C)NC(=O)Cc2cc(F)cc(F)c2)C(=O)N1C` (stereo not given in full), 47 nM.
In the case of `CC(C)N1C(=O)c2ccccc2C(NC(=O)[C@H](C)NC(=O)Cc2cccc3ccccc23)C(=O)N1C` (stereo not given in full), the IC50 on Gamma-secretase was greater than 2500 nM.
In turn, `CC(C)N1C(=O)c2ccccc2C(NC(=O)[C@H](C)NC(=O)Cc2ccoc2)C(=O)N1C` (stereo not given in full) had an IC50 at Gamma-secretase of 38 nM.
Same read-out and setting: the figure for `CC(C)N1C(=O)c2ccccc2C(NC(=O)[C@H](C)NC(=O)[C@@H](O)c2cc(F)cc(F)c2)C(=O)N1C` (stereo not given in full) is 5 nM.
On Gamma-secretase, `C[C@H](NC(=O)Cc1cc(F)cc(F)c1)C(=O)NC1N=C(c2ccccc2)c2ccccc2N(C)C1=O` (stereo not given in full) came in with an IC50 of 210 nM.
In the case of `CC(C)N1C(=O)c2ccccc2C(NC(=O)[C@H](C)NC(=O)CC2CCCCC2)C(=O)N1C` (stereo not given in full), it took 150 nM to reach half-maximal inhibition against Gamma-secretase (IC50).
With `CC(C)C[C@H](NC(=O)[C@@H](O)c1ccccc1)C(=O)N[C@H]1c2ccccc2C[C@H]1O`, the IC50 against Gamma-secretase was determined as 71 nM.
The compound `CC(C)N1C(=O)c2ccccc2C(NC(=O)[C@H](C)NC(=O)Cc2cccc(F)c2)C(=O)N1C` (stereo not given in full) returned an IC50 at Gamma-secretase of 57 nM.
Turning to `C[C@H](NC(=O)Cc1cc(F)cc(F)c1)C(=O)NC1C(=O)N(C)N(C)C(=O)c2ccccc21` (stereo not given in full), the Activity with Mus musculus [1] is reported as 2987 nM; in the assay on Mus musculus [3], 77 nM. Also, the IC50 against Gamma-secretase amounted to 5 nM. The Reduction in the assay with Mus musculus [2] was 43%.
As for `CC(C)N1C(=O)c2ccccc2C(NC(=O)[C@H](C)NC(=O)Cc2cc(C(F)(F)F)cc(C(F)(F)F)c2)C(=O)N1C` (stereo not given in full), the IC50 on Gamma-secretase is greater than 2500 nM.
`CC(C)C[C@H](NC(=O)Cc1ccsc1)C(=O)NC1C(=O)N(C)N(C(C)C)C(=O)c2ccccc21` (stereo not given in full): 4 nM corresponded to half-maximal inhibition at Gamma-secretase (IC50).
`CC(C)N1C(=O)c2ccccc2C(NC(=O)[C@H](C)NC(=O)Cc2ccccc2)C(=O)N1C` (stereo not given in full) returned an IC50 on Gamma-secretase of 140 nM.
Same read-out and setting: the figure for `CCCCN(C)C(=O)[C@H](CC1CCCCC1)NC(=O)[C@H](CC(C)C)NC(=O)Cc1cc(F)cc(F)c1` is 6 nM; for `CC(C)N1C(=O)c2ccccc2C(NC(=O)[C@H](C)NC(=O)Cc2cccnc2)C(=O)N1C` (stereo not given in full) it is greater than 2500 nM.
On Gamma-secretase, `CCCCN(C)C(=O)[C@H](CC1CCCCC1)NC(=O)[C@H](CC(C)C)NC(=O)[C@@H](O)c1ccccc1` returned an IC50 of 1 nM. In the assay on Mus musculus [4], this compound registered a Reduction of 15%. In addition, the Activity with Mus musculus [5] was 65 nM; in the assay on Mus musculus [6], 1833 nM.
With `C[C@H](NC(=O)Cc1cc(F)cc(F)c1)C(=O)NC1C(=O)N(C)c2ccccc2-c2ccccc21` (stereo not given in full), on Gamma-secretase, the IC50 came out at 76 nM.
